The record followed here is ChEMBL document CHEMBL3596126, “Synthesis, molecular docking and anticancer studies of peptides and iso-peptides” (Bioorg Med Chem Lett, 2015).

A word on the inhibition: it is the relative decrease from the control value, in per cent. As a reminder, the pIC50 is the IC50 on a negative log10 scale, so that one unit is a factor of ten.

Data set [1] deals with NAD(P)H dehydrogenase [quinone] 1 (Mus musculus) (UniProt Q64669). Put plainly: Activation of Quinone reductase-1 in mouse Hepa-1c1c7 cells assessed as induction ratio at 20 ug/ml after 48 hrs by MTT assay. It counts as cell-based. In general terms: Tetrazolium assays rely on reduction of a dye to a coloured formazan, in cell work by metabolically active cells.
NAD(P)H dehydrogenase [quinone] 1 (Mus musculus), sequence (Q64669 whole entry): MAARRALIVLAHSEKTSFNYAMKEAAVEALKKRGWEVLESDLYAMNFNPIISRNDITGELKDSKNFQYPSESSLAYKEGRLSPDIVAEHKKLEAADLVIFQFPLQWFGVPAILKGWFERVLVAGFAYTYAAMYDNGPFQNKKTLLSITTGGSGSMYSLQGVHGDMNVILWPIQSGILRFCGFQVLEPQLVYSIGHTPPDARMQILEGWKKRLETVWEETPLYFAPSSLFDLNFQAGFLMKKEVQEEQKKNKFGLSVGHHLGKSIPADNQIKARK
Data set [2] can be described thus: Cytotoxicity against HEK293 cells assessed as cell survival at 20 ug/ml after 6 hrs by SRB assay relative to control. Particulars: human, read-out: Survival. It counts as cell-based.
Data set [3] concerns MCF7. Put plainly: Cytotoxicity against human MCF7 cells assessed as cell survival at 20 ug/ml relative to control. The conditions noted are these: read-out: Survival. Type of data set: functional.
In data set [4] the test system is MDA-MB-231. Put plainly: Cytotoxicity against human MDA-MB-231 cells assessed as cell survival at 20 ug/ml relative to control. It counts as functional. Particulars: read-out: Survival.
Data set [5] relates to HEK293. Put plainly: Inhibition of TNF-alpha activated nuclear factor-kappa B in HEK293 cells at 20 ug/ml after 6 hrs by luciferase reporter gene assay relative to control. Type of data set: cell-based. The conditions noted are these: Homo sapiens. A general note: In a reporter assay the amount or activity of a reporter protein is the signal.
Data set [6] in a line: Inhibition of TNF-alpha activated nuclear factor-kappa B in HEK293 cells after 6 hrs by luciferase reporter gene assay. Particulars: Homo sapiens, HEK293, 6 h. Type of data set: cell-based.

pIC50: −log10 of the molar value. Where a SMILES comes first, the peptide text is derived from it. Side-chain parts run from the residue outwards. The star is where a group is joined. Cbz = O=C(OCc1ccccc1)*; Boc = CC(C)(C)OC(=O)*

In the case of `C[C@H](NC(=O)OCc1ccccc1)C(=O)N[C@H](CO)C(=O)O`, the Ratio in data set [1] came out at 0.9. In data set [2], the viability at 6 h, 20 ug/ml came to 123%. The viability at 20 µg/mL in data set [3] was 66.3%; in data set [4], 94.9%. Also, the inhibition in data set [5] was 10.7%.
`C[C@H](NC(=O)OCc1ccccc1)C(=O)N[C@@H](Cc1ccccc1)C(=O)n1nnc2ccccc21`: in data set [1], the Ratio was 1.2. Also, the viability at 6 h, 20 ug/ml in data set [2] was determined as 104%. Further, the viability at 20 µg/mL in data set [3] amounted to 59.3%; in data set [4] it was 91.4%. Moreover, the inhibition in data set [5] is 49.6%.
For `C[C@H](NC(=O)OC(C)(C)C)C(=O)n1nnc2ccccc21`, in data set [1], the Ratio was 1.2. In addition, the viability at 6 h, 20 ug/ml in data set [2] is 122%. Further, the values for the viability at 20 µg/mL in data set [3] and in data set [4] were 75.8% and 90.9%, respectively. Further, the inhibition in data set [5] worked out at 35.7%.
The matching figures for `CC(C)(C)OC(=O)NCC(=O)OC[C@@H](NC(=O)[C@H](Cc1ccccc1)NC(=O)OCc1ccccc1)C(=O)O`: 1.1, 121%, 126%, 106% and 10.1%.
For the compound `O=C(N[C@@H](Cc1ccccc1)C(=O)n1nnc2ccccc21)OCc1ccccc1`, the Ratio in data set [1] is 1.3. In addition, the viability at 6 h, 20 ug/ml in data set [2] came out at 104%. In addition, the viability at 20 µg/mL in data set [3] is 74.2%; in data set [4], 98%.
Take `C[C@H](NC(=O)OCc1ccccc1)C(=O)N[C@@H](Cc1ccccc1)C(=O)O`: the Ratio in data set [1] amounted to 1.1. The viability at 6 h, 20 ug/ml in data set [2] came to 113%. In addition, the viability at 20 µg/mL in data set [3] worked out at 63.9%; in data set [4], 98.9%. Also, the inhibition in data set [5] was 18.7%.
`Cc1ccc(S(=O)(=O)N[C@@H](Cc2ccccc2)C(=O)CCl)cc1` [TPCK] had a pIC50 in data set [6] of 5.30.
With `C[C@H](OC(=O)CNC(=O)OC(C)(C)C)[C@H](NC(=O)[C@H](Cc1ccccc1)NC(=O)OCc1ccccc1)C(=O)O`, in data set [1], the Ratio amounted to 0.9. Moreover, in data set [2], the viability at 6 h, 20 ug/ml is 122%. Moreover, the figures for the viability at 20 µg/mL in data set [3] and in data set [4] were 114% and 83.9%, respectively. Also, the inhibition in data set [5] is -4.1%.
On the same counts, the results for `CC(C)(C)OC(=O)NCC(=O)OC[C@H](NC(=O)[C@@H](N)Cc1ccccc1)C(=O)O` (H-Phe-Ser([Gly-Boc])-OH) are 2.4, 121%, 104%, 99.4% and 14.8%.
The matching figures for `O=C(N[C@@H](Cc1ccccc1)C(=O)NCC(=O)n1nnc2ccccc21)OCc1ccccc1`: 0.9, 96.9%, 93.2%, 106% and 12.2%.
The matching figures for `C[C@H](O)[C@H](NC(=O)[C@H](Cc1ccccc1)NC(=O)OCc1ccccc1)C(=O)O`: 2.2, 122%, 58.3%, 104% and 55.7%.
On to `C[C@H](OC(=O)CNC(=O)OC(C)(C)C)[C@H](NC(=O)[C@@H](N)Cc1ccccc1)C(=O)O`, for which, in data set [1], the Ratio worked out at 1. In addition, the viability at 6 h, 20 ug/ml in data set [2] was found to be 103%. The figures for the viability at 20 µg/mL in data set [3] and in data set [4] were 93.8% and 93.9%, respectively. In addition, the inhibition in data set [5] is 26.3%.
On the same counts, the results for `CC(C)(C)OC(=O)NCC(=O)OC[C@H](NC(=O)[C@H](Cc1ccccc1)NC(=O)OCc1ccccc1)C(=O)O` are 1.1, 136%, 142%, 92.1% and -5.2%.
On the same counts, the results for `c1ccc2[nH]nnc2c1` [BENZOTRIAZOLE] are 1.2, 99.7%, 104%, 103% and 3.6%.
Consider `CC(C)(C)OC(=O)NCC(=O)n1nnc2ccccc21`, for which the Ratio in data set [1] came to 1.1. In addition, the viability at 6 h, 20 ug/ml in data set [2] came to 110%. Moreover, the viability at 20 µg/mL in data set [3] came out at 90.3%; in data set [4], 108%. The inhibition in data set [5] came to 41.3%.
With `C[C@H](NC(=O)OCc1ccccc1)C(=O)N[C@@H](COC(=O)CNC(=O)OC(C)(C)C)C(=O)O` (Cbz-Ala-Ser([Gly-Boc])-OH), the Ratio in data set [1] worked out at 2.5. Also, the viability at 6 h, 20 ug/ml in data set [2] was determined as 108%. The results for the viability at 20 µg/mL in data set [3] and in data set [4] were 110% and 104%, respectively. For the same compound, the inhibition in data set [5] stood at 22%.
The matching figures for `O=C(N[C@@H](Cc1ccccc1)C(=O)N[C@H](CO)C(=O)O)OCc1ccccc1`: 1.5, 122%, 69.5%, 97.4% and 24.5%.
Take `C[C@H](NC(=O)OCc1ccccc1)C(=O)N[C@H](C(=O)O)[C@H](C)O`: the Ratio in data set [1] turned out to be 1.7. In addition, the viability at 6 h, 20 ug/ml in data set [2] came out at 116%. Moreover, the values for the viability at 20 µg/mL in data set [3] and in data set [4] were 106% and 92.8%, respectively.
Take `C[C@H](NC(=O)OCc1ccccc1)C(=O)n1nnc2ccccc21`: in data set [1], the Ratio was determined as 1. In data set [2], the viability at 6 h, 20 ug/ml worked out at 126%. The viability at 20 µg/mL amounted to 104% in data set [3] and 106% in data set [4]. For the same compound, in data set [5], the inhibition was determined as 32.6%.
The matching figures for `O=C(N[C@@H](Cc1ccccc1)C(=O)N[C@@H](CO)C(=O)O)OCc1ccccc1`: 1.2, 119%, 75.8%, 99.9% and 18.3%.
On the same counts, the results for `C[C@H](NC(=O)OCc1ccccc1)C(=O)N[C@@H](CO)C(=O)O` are 1.1, 110%, 78.6%, 98.1% and 13.9%.
